According to PubChem BioAssay (NCI):
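Values below derive from 48-hour exposures of cells grown in 96-well plates, with endpoints linearly interpolated between the two concentrations bracketing the appropriate inhibition level. The concentration for 50% growth inhibition is given as GI50. TGI marks complete inhibition of growth.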

What was measured:
Test in all cases: growth of human tumour cells (NCI), 48 h
NCI-H23 lung = test system: NCI-H23 lung
T-47D breast = test system: T-47D breast
SW-620 colon = test system: SW-620 colon
HCT-15 colon = test system: HCT-15 colon
DU-145 prostate = test system: DU-145 prostate
MOLT-4 leukemia = test system: MOLT-4 leukemia
OVCAR-8 ovarian = test system: OVCAR-8 ovarian
SNB-19 CNS = test system: SNB-19 CNS
K-562 leukemia = test system: K-562 leukemia
UACC-257 melanoma = test system: UACC-257 melanoma
SK-MEL-28 melanoma = test system: SK-MEL-28 melanoma
SK-MEL-2 melanoma = test system: SK-MEL-2 melanoma
RXF 393 renal = test system: RXF 393 renal
OVCAR-4 ovarian = test system: OVCAR-4 ovarian
MALME-3M melanoma = test system: MALME-3M melanoma
IGROV1 ovarian = test system: IGROV1 ovarian
NCI-H522 lung = test system: NCI-H522 lung
A549 NSCLC = test system: A549 NSCLC
HOP-62 NSCLC = test system: HOP-62 NSCLC
PC-3 prostate = test system: PC-3 prostate
786-0 renal = test system: 786-0 renal
MCF7 breast = test system: MCF7 breast
SR leukemia = test system: SR leukemia
M14 melanoma = test system: M14 melanoma
KM12 colon = test system: KM12 colon
UO-31 renal = test system: UO-31 renal
SN12C renal = test system: SN12C renal
HS 578T breast = test system: HS 578T breast
LOX IMVI melanoma = test system: LOX IMVI melanoma
RPMI-8226 leukemia = test system: RPMI-8226 leukemia
U251 CNS = test system: U251 CNS
NCI-H226 lung = test system: NCI-H226 lung
TK-10 renal = test system: TK-10 renal
HT29 colon = test system: HT29 colon
CCRF-CEM leukemia = test system: CCRF-CEM leukemia
CAKI-1 renal = test system: CAKI-1 renal
COLO 205 colon = test system: COLO 205 colon
HL-60(TB) leukemia = test system: HL-60(TB) leukemia
SF-539 CNS = test system: SF-539 CNS
NCI-H460 lung = test system: NCI-H460 lung
OVCAR-5 ovarian = test system: OVCAR-5 ovarian
SNB-75 CNS = test system: SNB-75 CNS
HOP-92 NSCLC = test system: HOP-92 NSCLC
SK-MEL-5 melanoma = test system: SK-MEL-5 melanoma
UACC-62 melanoma = test system: UACC-62 melanoma
MDA-MB-468 breast = test system: MDA-MB-468 breast
HCT-116 colon = test system: HCT-116 colon
SF-295 CNS = test system: SF-295 CNS
HCC-2998 colon = test system: HCC-2998 colon
NCI/ADR-RES ovarian = test system: NCI/ADR-RES ovarian
BT-549 breast = test system: BT-549 breast
MDA-MB-231 breast = test system: MDA-MB-231 breast
MDA-MB-435 = test system: MDA-MB-435
ACHN renal = test system: ACHN renal
A498 renal = test system: A498 renal
SF-268 CNS = test system: SF-268 CNS
OVCAR-3 ovarian = test system: OVCAR-3 ovarian
SK-OV-3 ovarian = test system: SK-OV-3 ovarian
EKVX NSCLC = test system: EKVX NSCLC

Structure (SMILES): CCCCCCn1c(O)c(N=Nc2nc(-c3cc4ccccc4oc3=O)cs2)c2ccccc21
- GI50 (NCI-H23 lung): 12.2 µM
- TGI (NCI-H23 lung): 24.6 µM
- GI50 (T-47D breast): 12.7 µM
- TGI (T-47D breast): 32.5 µM
- GI50 (SW-620 colon): 16.6 µM
- TGI (SW-620 colon): 31.3 µM
- GI50 (HCT-15 colon): 15.2 µM
- TGI (HCT-15 colon): 28.7 µM
- GI50 (DU-145 prostate): 16.3 µM
- TGI (DU-145 prostate): 30.1 µM
- GI50 (MOLT-4 leukemia): 15.8 µM
- TGI (MOLT-4 leukemia): 42.6 µM
- GI50 (OVCAR-8 ovarian): 17.1 µM
- TGI (OVCAR-8 ovarian): 32.1 µM
- GI50 (SNB-19 CNS): 15.1 µM
- TGI (SNB-19 CNS): 28.4 µM
- GI50 (K-562 leukemia): 15.2 µM
- TGI (K-562 leukemia): 43.8 µM
- GI50 (UACC-257 melanoma): 17.4 µM
- TGI (UACC-257 melanoma): 31.7 µM
- GI50 (SK-MEL-28 melanoma): 13.9 µM
- TGI (SK-MEL-28 melanoma): 26.8 µM
- GI50 (SK-MEL-2 melanoma): 18.3 µM
- TGI (SK-MEL-2 melanoma): 32.4 µM
- GI50 (RXF 393 renal): 8.91 µM
- TGI (RXF 393 renal): 21.1 µM
- GI50 (OVCAR-4 ovarian): 14.2 µM
- TGI (OVCAR-4 ovarian): 27.5 µM
- GI50 (MALME-3M melanoma): 16.9 µM
- TGI (MALME-3M melanoma): 30.6 µM
- GI50 (IGROV1 ovarian): 17.2 µM
- TGI (IGROV1 ovarian): 30.9 µM
- GI50 (NCI-H522 lung): 4.1 µM
- TGI (NCI-H522 lung): 14 µM
- GI50 (A549 NSCLC): 13.6 µM
- TGI (A549 NSCLC): 27.7 µM
- GI50 (HOP-62 NSCLC): 16.2 µM
- TGI (HOP-62 NSCLC): 30.3 µM
- GI50 (PC-3 prostate): 10.6 µM
- TGI (PC-3 prostate): 23.5 µM
- GI50 (786-0 renal): 17.5 µM
- TGI (786-0 renal): 31.4 µM
- GI50 (MCF7 breast): 12.1 µM
- TGI (MCF7 breast): 25.9 µM
- GI50 (SR leukemia): 7.19 µM
- TGI (SR leukemia): 34.8 µM
- GI50 (M14 melanoma): 15 µM
- TGI (M14 melanoma): 28.8 µM
- GI50 (KM12 colon): 17.9 µM
- TGI (KM12 colon): 33.8 µM
- GI50 (UO-31 renal): 14.1 µM
- TGI (UO-31 renal): 27.1 µM
- GI50 (SN12C renal): 17.4 µM
- TGI (SN12C renal): 31.2 µM
- GI50 (HS 578T breast): 7.91 µM
- TGI (HS 578T breast): 52.3 µM
- GI50 (LOX IMVI melanoma): 15.5 µM
- TGI (LOX IMVI melanoma): 28.9 µM
- GI50 (RPMI-8226 leukemia): 17.2 µM
- TGI (RPMI-8226 leukemia): 53.1 µM
- GI50 (U251 CNS): 15.8 µM
- TGI (U251 CNS): 29.9 µM
- GI50 (NCI-H226 lung): 14.9 µM
- TGI (NCI-H226 lung): 28.1 µM
- GI50 (TK-10 renal): 19.4 µM
- TGI (TK-10 renal): 33.6 µM
- GI50 (HT29 colon): 11.6 µM
- TGI (HT29 colon): 24.4 µM
- GI50 (CCRF-CEM leukemia): 10.4 µM
- TGI (CCRF-CEM leukemia): 44.8 µM
- GI50 (CAKI-1 renal): 17.7 µM
- TGI (CAKI-1 renal): 32.2 µM
- GI50 (COLO 205 colon): 11 µM
- TGI (COLO 205 colon): 24.9 µM
- GI50 (HL-60(TB) leukemia): 18.8 µM
- TGI (HL-60(TB) leukemia): 45.1 µM
- GI50 (SF-539 CNS): 16 µM
- TGI (SF-539 CNS): 29.5 µM
- GI50 (NCI-H460 lung): 15.1 µM
- TGI (NCI-H460 lung): 30.1 µM
- GI50 (OVCAR-5 ovarian): 17.1 µM
- TGI (OVCAR-5 ovarian): 30.8 µM
- GI50 (SNB-75 CNS): 12 µM
- TGI (SNB-75 CNS): 24.8 µM
- GI50 (HOP-92 NSCLC): 11 µM
- TGI (HOP-92 NSCLC): 23.9 µM
- GI50 (SK-MEL-5 melanoma): 9.02 µM
- TGI (SK-MEL-5 melanoma): 21.1 µM
- GI50 (UACC-62 melanoma): 13.7 µM
- TGI (UACC-62 melanoma): 26.5 µM
- GI50 (MDA-MB-468 breast): 15.7 µM
- TGI (MDA-MB-468 breast): 29.7 µM
- GI50 (HCT-116 colon): 11.1 µM
- TGI (HCT-116 colon): 23.4 µM
- GI50 (SF-295 CNS): 14.4 µM
- TGI (SF-295 CNS): 27.5 µM
- GI50 (HCC-2998 colon): 16.2 µM
- TGI (HCC-2998 colon): 29.7 µM
- GI50 (NCI/ADR-RES ovarian): 15.1 µM
- TGI (NCI/ADR-RES ovarian): 28.9 µM
- GI50 (BT-549 breast): 15.7 µM
- TGI (BT-549 breast): 29.2 µM
- GI50 (MDA-MB-231 breast): 11.6 µM
- TGI (MDA-MB-231 breast): 23.8 µM
- GI50 (MDA-MB-435): 17 µM
- TGI (MDA-MB-435): 31.2 µM
- GI50 (ACHN renal): 16.7 µM
- TGI (ACHN renal): 30.3 µM
- GI50 (A498 renal): 19.7 µM
- TGI (A498 renal): 33.9 µM
- GI50 (SF-268 CNS): 17.3 µM
- TGI (SF-268 CNS): 38.6 µM
- GI50 (OVCAR-3 ovarian): 16.9 µM
- TGI (OVCAR-3 ovarian): 30.8 µM
- GI50 (SK-OV-3 ovarian): 15.2 µM
- TGI (SK-OV-3 ovarian): 29.1 µM
- GI50 (EKVX NSCLC): 9.61 µM
- TGI (EKVX NSCLC): 21.4 µM
